From patent EP4711370A1, “DEUTERATED CAMPTOTHECIN COMPOUND, AND PREPARATION THEREFOR AND USE THEREOF” (Shanghai Qilu Pharmaceutical Research and Development …, priority 2023, dated 2024) come the findings set out here.

Data set [1] can be described thus: In vitro plasma stability. Format: in vitro ADME. The settings on record: 37°C, 5 µM. As to the method:
398 µL of plasma was taken and preheated to 37°C, then co-incubated for 15 minutes. 2 µL of the sample solution was added to the plasma to prepare a final sample concentration of 5 µM. The above solution was co-incubated at 37°C, and 50 µL aliquots were taken at 0, 15, 30, 60, and 120 minutes, followed by the addition of 450 µL of ice-cold acetonitrile (containing the internal standard). The solution was vortexed for 10 minutes, centrifuged, and the remaining content of the parent substrate was detected by the LC-MS/MS method. For specific results, refer to Table 4-1. Table 4-1. Plasma stability of the compounds of the present disclosure

The subject of data set [2] is NCI-N87 (human gastric cancer cells). Description: In vitro antitumor activity (cell proliferation inhibition, CellTiter-Glo). Format: cell-based. The note with it: 48 hours of incubation. The source says: (§1) Objective: To detect the in vitro inhibitory activity of the compounds of the present disclosure against NCI-N87 (human gastric cancer cells), Calu-3 (human lung adenocarcinoma cells), MDA-MB-453 (human breast cancer cells), KPL-4 (human breast cancer cells), or MDA-MB-468 (human breast cancer cells).
(§2) Tumor cells in the logarithmic growth phase, including NCI-N87 (source: ATCC, catalog number: CRL-5822), Calu-3 (source: ATCC, catalog number: HTB-55), MDA-MB-453 (source: ATCC, catalog number: HTB-131), KPL-4 (source: Nanjing Cobioer Biosciences, catalog number: CBP60379), or MDA-MB-468 (source: ATCC, catalog number: HTB-132), were seeded into cell plates at a density of 5,000 cells/well. The cell plates were then incubated in a 37°C, 5% CO2 cell culture incubator for 12-16 hours. 100 µL of sample (starting at 10 µM, 4-fold dilution, 10 concentrations) was added to each well. After gentle shaking, the plates were placed in the incubator for further incubation. After 48 hours of incubation, 70 µL of CellTiter-Glo™ (Promega, catalog number: G7572) working solution was added, gently shaken to lyse the cells, and the plates were read on a microplate reader. The cell proliferation inhibition rate was calculated using the following formula: cell proliferation inhibition rate = (1-sample well/control well)×100%. GraphPad Prism 8.0 software was used to plot the Log value of sample concentration as the x-axis and Cytotoxicity% as the y-axis. The data were analyzed by Nonlinear regression (curve fit) to obtain the IC50 values for each sample, with specific results shown in Tables 1-1 and 1-2. Table 1-1. In vitro activity test results of the compounds of the present disclosure

Data set [3] deals with Calu-3 (human lung adenocarcinoma cells). The description is as above. Format: cell-based. The settings on record: Calu-3 cells, 48 hours of incubation.
Excerpt: as §1, §2

Data set [4] concerns MDA-MB-468 (human breast cancer cells). The data set is described as above. Type of data set: cell-based. The settings on record: MDA-MB-468 cells, 48 hours of incubation.
Excerpt: as §1, §2

Data set [5] deals with MDA-MB-453 (human breast cancer cells). The description is as above. The note with it: MDA-MB-453 cells, 48 hours of incubation. Format: cell-based.
Excerpt: as §1, §2

A further data set can be described thus: Pharmacokinetics in mice. Type of data set: in vivo, Balb/c mice. The note with it: 3 mg/kg, Mouse PK (IV, 3 mpk), single injection, plasma. From the text:
Objective: To evaluate the pharmacokinetic characteristics of the compounds of the present disclosure in mice.
Balb/c mice were taken, with 12 mice per group (half male and half female), randomly grouped, and administered a single injection of the sample (Formulation A: 5% DMSO + 95% (15% sulfobutyl-β-cyclodextrin-normal saline), Formulation B: 5% DMSO-10% Solutol HS 15-85% normal saline, diluted according to the dose). Blood samples were collected at crossover time points, including before administration and at 5 min, 30 min, 1 h, 2 h, 4 h, 6 h, 8 h, 10 h, and 24 h after administration. Plasma was collected, and the sample concentration in plasma was detected by LC-MS. Table 2-1. PK parameters of the compounds of the present disclosure in mice

A short description of the next data set: Pharmacokinetics in rats. Format: in vivo, SD rats. The settings on record: 3 mg/kg, Rat PK (IV, 3 mpk), single injection, plasma, Formulation A. On the procedure:
Objective: To evaluate the pharmacokinetic characteristics of the compounds of the present disclosure in rats.
SD rats (purchased from Beijing Vital River Laboratory Animal Technology Co., Ltd.) were used, with 6 rats per group (half male and half female), randomly grouped. A single injection of the sample (Formulation A: 5% DMSO + 95% (15% sulfobutyl-β-cyclodextrin-normal saline), diluted according to the dose) was administered. Blood samples were collected at crossover time points: before administration and at 5 min, 30 min, 1 h, 2 h, 4 h, 6 h, 8 h, 10 h, and 24 h after administration. Plasma was collected, and the sample concentration in plasma was detected by LC-MS. Table 3-1. PK parameters of the compounds of the present disclosure in rats

A short description of data set [6]: Repeated administration toxicity experiment in rats. Type of data set: in vivo, SD rats. The settings on record: for Clinical observation: course after ataxia / Clinical observation: animals showed ataxia immediately after administration / Clinical observation: died during recovery (among animals with ataxia) / Body weight / food intake: tail vein injection for 7 consecutive days; for Clinical observation: animals showed ataxia immediately after administration / Clinical observation: died during recovery (among animals with ataxia): main trial group + TK group; for gross dissection: lungs: gross dissection on D8 after administration; for Body weight / food intake: 0.3 mg/kg and 1.0 mg/kg, Compound 2 stated relative to Dxd at the same dose. On the procedure:
Test sample preparation: The test sample was weighed according to the predetermined weight into a glass vial. First, 1 mL of DMSO was added and mixed until the test sample was dissolved, followed by the addition of 1 mL of Solutol HS-15.
SD rats (purchased from Beijing Vital River) were used as test animals. […] During the acclimation period, one cage-side observation was conducted daily; during the administration period, all animals were subjected to clinical observations twice daily (morning and afternoon). Reactions in various aspects, including the skin, fur, eyes (sclera), ears, nose, oral cavity, chest, abdomen, urogenital area, limbs, as well as respiration, movement, urination, defecation (including urine and feces color), and behavioral changes, were recorded. Daily weight data of the main test group animals were documented. For animals scheduled for dissection, terminal body weight (fasted) was measured before dissection. The food intake of the test animals was also recorded.
At the end of the administration, gross dissection was performed on D8 after administration.

Data set [7] relates to KPL-4 (human breast cancer cells). Description: In vitro antitumor activity (cell proliferation inhibition, CellTiter-Glo). Type of data set: cell-based. The settings on record: KPL4, KPL-4 cells, 48 hours of incubation.
Excerpt: as §1, §2
For orientation: In ATP-based viability assays light output follows the ATP content of the culture.

[8] abbreviates: in vivo, Formulation B (5% DMSO-10% Solutol HS 15-85% normal saline).
Where [9] appears, read: both sexes, Balb/c, Formulation A (5% DMSO + 95% (15% sulfobutyl-β-cyclodextrin-normal saline)).
[10] abbreviates: in vivo, Formulation A (5% DMSO + 95% (15% sulfobutyl-β-cyclodextrin-normal saline)).

On to `[2H]C1([2H])OC(=O)[C@](O)(CC)c2cc3n(c(=O)c21)Cc1c-3nc2cc(F)c(C)c3c2c1[C@@H](NC(=O)[C@H](O)C1CC1)CC3` [Compound 3], for which the “Residual content of parent toxin at 120 minutes (relative to 0 minutes)” value (“Residual content … (relative to 0 minutes)” for short) in data set [1] (CD1 mouse plasma) was determined as 104.97%; in [1] (Human plasma) it was 105.54%. Further, the IC50 in data set [2] was 4.37 nM; in data set [3] it was 17.1 nM; in data set [4] it was 0.97 nM; in [5], 40.3 nM. Besides, the Cmax in “Pharmacokinetics in mice” (setting [8]) was 4300 ng/mL. Further, in “Pharmacokinetics in mice” (setting [8]), the half-life was 36.4 min.

`[2H]C1([2H])OC(=O)[C@](O)(CC)c2cc3n(c(=O)c21)Cc1c-3nc2cc(F)c(C)c3c2c1[C@@H](NC(=O)C[C@H](C)O)CC3` [Compound 6]: the “Residual content … (relative to 0 minutes)” value in data set [1] (CD1 mouse plasma) worked out at 105.93%; in data set [1] (Human plasma) it was 94.89%. The IC50 in data set [2] stood at 13.3 nM; in data set [3] it was 46.6 nM; in [4], 3.11 nM; in [5], 121 nM. The Cmax in “Pharmacokinetics in mice” (setting [8]) is 2580 ng/mL. In “Pharmacokinetics in mice” (setting [8]), this compound had a half-life of 40.7 min.

In the case of `CC[C@@]1(O)C(=O)OCc2c1cc1n(c2=O)Cc2c-1nc1cc(F)c(C)c3c1c2[C@@H](NC(=O)CO)CC3` [Dxd], in the data set “Pharmacokinetics in mice” (setting [9]), the Cmax came out at 521 ng/mL and the half-life is 70.2 min. In “Pharmacokinetics in rats” (both sexes, SD), the AUC(0-inf) is 352 ng·h/mL, the concentration peaked (Cmax) at 621 ng/mL, the clearance was 144 mL/min/kg and the half-life is 70.3 min. In data set [6] (0.3 mpk dose group), the “Clinical observation: course after ataxia” value (“Clinical observation: course” for short) is recorded as “the other rats gradually recovered”, the “Clinical observation: animals showed ataxia immediately after administration” value (“Clinical observation … after administration” for short) is given as 31% and the “Clinical observation: died during recovery (among animals with ataxia)” value is 40%. Also, in [6] (1 mpk dose group), the “Clinical observation: course” value is “the other rats gradually recovered”, the “Clinical observation … after administration” value came to 31% and the “Clinical observation: died during recovery (among animals with ataxia)” value is on record as 40%. Further, in data set [6], the “gross dissection: lungs” value is “Focal/punctate dark red discoloration was observed in the lungs of some deceased rats”, the Body weight entry is given as “Slow weight gain/weight loss;” and the food intake entry is reported as “Decreased food intake”.

In the case of `[2H]C1([2H])OC(=O)[C@](O)(CC)c2cc3n(c(=O)c21)Cc1c-3nc2cc3c(cc2c1CCCO)OCO3` [Compound 12], the IC50 worked out at 7.29 nM in data set [2], 7.05 nM in [7] and 1.7 nM in data set [4].

Regarding `[2H]C1([2H])OC(=O)[C@](O)(CC)c2cc3n(c(=O)c21)Cc1c-3nc2cc(F)c(C)c3c2c1[C@@H](NC(=O)CO)CC3` [Compound 2], in data set [2], the IC50 was 7.17 nM. Moreover, in [3], the IC50 came out at 27.1 nM. The IC50 in [4] came out at 0.98 nM. In addition, the IC50 in [5] was determined as 114 nM. Further, in “Pharmacokinetics in mice” (setting [10]), the maximum concentration (Cmax) was 449 ng/mL and the half-life is 27.3 min. In the data set “Pharmacokinetics in rats” (in vivo), this compound showed an AUC(0-inf) of 218 ng·h/mL, a maximum concentration (Cmax) of 406 ng/mL, a clearance of 235 mL/min/kg and a half-life of 39.7 min. Further, in data set [6] (0.3 mpk dose group), the “Clinical observation: course” value is recorded as “then gradually recovered” and the “Clinical observation … after administration” value is recorded as 13%. Besides, in [6] (1 mpk dose group), the “Clinical observation: course” value is listed as “then gradually recovered” and the “Clinical observation … after administration” value stood at 25%. Also, the “average food intake, ♀ rats” value in [6] (female rats, compared with the control (Dxd) group at the same dose) is “For ♀ rats, the average food intake in the Compound 2 group was higher than that in the control group at the same dose;”. For the same compound, in [6], the “gross dissection: lungs” value is recorded as “no such pathological changes were found in any dose group”; the Body weight result was “At the same dose, the effects of Compound 2 and Dxd on rat body weight and food intake were generally comparable;”; the food intake result is “At the same dose, the effects of Compound 2 and Dxd on rat body weight and food intake were generally comparable;”.

`[2H]C1([2H])OC(=O)[C@](O)(CC)c2cc3n(c(=O)c21)Cc1c-3nc2cc(F)c(C)c3c2c1[C@@H](NC(=O)[C@@H](O)C1CC1)CC3` [Compound 4]: the concentration for half-maximal inhibition (IC50) in data set [2] stood at 4.06 nM; in [3], 19.3 nM; in [4], 0.88 nM; in [5], 55.3 nM.

As to `[2H]C1([2H])OC(=O)[C@](O)(CC)c2cc3n(c(=O)c21)Cc1c-3nc2cc(F)c(C)c3c2c1[C@@H](NC(=O)C[C@@H](C)O)CC3` [Compound 5], the “Residual content … (relative to 0 minutes)” value in data set [1] (CD1 mouse plasma) was 96.02%; in data set [1] (Human plasma) it was 107.73%. In addition, the IC50 in [2] turned out to be 9.18 nM; in [3], 32.9 nM; in [4] it was 1.3 nM; in data set [5] it was 94.6 nM. The compound also came in with a Cmax in the data set “Pharmacokinetics in mice” (setting [8]) of 3520 ng/mL. The same compound gave a half-life in the data set “Pharmacokinetics in mice” (setting [8]) of 40.4 min.

A word on the IC50: it is the concentration needed to halve the response being measured. For orientation: Cmax means the peak of the concentration-time curve. Broadly, the half-life is the time in which the quantity being followed falls by half. In general, AUC(0-inf) refers to total exposure, with the tail of the curve extrapolated. Read a high AUC(0-inf) as more exposure. A word on the clearance: it is the volume of plasma or blood freed of the substance per unit of time.
